Laboratory results: patent publication US9169254B2, “Spiroimidazolone derivative” (Chugai Seiyaku Kabushiki Kaisha, priority 2009, dated 2015)

molecular target: T1, human PTH1 receptor (Homo sapiens, UniProt Q03431); assay: In vitro cAMP signal activity in HKRK-B7 cells (LLC-PK1 cells overexpressing the human PTH1 receptor); type: cell-based; settings: HKRK-B7 cells; compound at 1×10^−3 M; cAMP produced as percentage of that produced by hPTH(1-34) at 100 nM
T1 sequence (Q03431 27-593): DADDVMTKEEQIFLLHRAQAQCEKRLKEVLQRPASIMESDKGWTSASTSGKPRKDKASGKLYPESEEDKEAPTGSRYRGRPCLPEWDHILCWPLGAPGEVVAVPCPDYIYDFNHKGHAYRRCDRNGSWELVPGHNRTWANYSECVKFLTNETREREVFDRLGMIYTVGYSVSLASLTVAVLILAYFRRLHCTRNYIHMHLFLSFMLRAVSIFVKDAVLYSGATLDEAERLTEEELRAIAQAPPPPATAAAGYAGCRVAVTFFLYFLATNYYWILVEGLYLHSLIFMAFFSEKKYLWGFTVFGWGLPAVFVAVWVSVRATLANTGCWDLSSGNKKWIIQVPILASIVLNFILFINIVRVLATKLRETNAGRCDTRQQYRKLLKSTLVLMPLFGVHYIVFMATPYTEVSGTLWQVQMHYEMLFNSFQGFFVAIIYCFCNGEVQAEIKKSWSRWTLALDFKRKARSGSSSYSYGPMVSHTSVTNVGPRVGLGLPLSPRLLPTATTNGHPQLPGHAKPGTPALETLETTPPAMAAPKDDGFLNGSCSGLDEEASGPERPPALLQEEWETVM

In order of rising “cAMP production activity (%)” value:
1. Cc1cc(N(C)C(N)=O)cc(C)c1/C=C/S(=O)(=O)N1CCC2(CC1)N=C(CCCCCCCS(C)(=O)=O)NC2=O [Compound 1319, 1-(4-{(E)-2-[2-(7-methanesulfonyl-heptyl)-4-oxo-1,3,8-triaza-spiro[4.5]dec-1-ene-8-sulfonyl]-vinyl}-3,5-dimethyl-phenyl)-1-methyl-urea]  5.8%
2. Cc1cc(C(=O)N2CC(F)C2)cc(C)c1/C=C/S(=O)(=O)N1CCC2(CC1)N=C(c1cccc(OC(F)(F)F)c1)NC2=O [Compound 963, 8-{(E)-2-[4-(3-Fluoro-azetidine-1-carbonyl)-2,6-dimethyl-phenyl]-ethenesulfonyl}-2-(3-trifluoromethoxy-phenyl)-1,3,8-triaza-spiro[4.5]dec-1-en-4-one]  16%
3. Cc1cc(N2C(=O)NC(C)(C)C2=O)ccc1/C=C/S(=O)(=O)N1CCC2(CC1)N=C(C1CCC(C)CC1)NC2=O (stereo not shown) [Compound 511, 5,5-dimethyl-3-(3-methyl-4-{(E)-2-[2-(4-methyl-cyclohexyl)-4-oxo-1,3,8-triaza-spiro[4.5]dec-1-ene-8-sulfonyl]-vinyl}-phenyl)-imidazolidine-2,4-dione]  29%
4. Cc1cc(Nc2nccs2)cc(C)c1/C=C/S(=O)(=O)N1CCC2(CC1)N=C(C1CCCCC1)NC2=O [Compound 573, 2-cyclohexyl-8-{(E)-2-[2,6-dimethyl-4-(thiazol-2-ylamino)-phenyl]-ethenesulfonyl}-1,3,8-triaza-spiro[4.5]dec-1-en-4-one]  35%
5. Cc1ccccc1CNS(=O)(=O)N1CCC2(CC1)N=C(C1CCC(C)CC1)NC2=O (stereo not shown) [Compound 1372, 2-(4-Methyl-cyclohexyl)-4-oxo-1,3,8-triaza-spiro[4.5]dec-1-ene-8-sulfonic acid 2-methyl-benzylamide]  36%
6. Cc1cc(C(=O)N2C[C@@H](C)N[C@@H](C)C2)cc(C)c1/C=C/S(=O)(=O)N1CCC2(CC1)N=C(c1ccc(F)c(C(F)(F)F)c1)NC2=O [Compound 969, 8-{(E)-2-[4-((3R,5S)-3,5-dimethyl-piperazine-1-carbonyl)-2,6-dimethyl-phenyl]-ethenesulfonyl}-2-(4-fluoro-3-trifluoromethyl-phenyl)-1,3,8-triaza-spiro[4.5]dec-1-en-4-one]  45%
7. Cc1cc(N(CC#N)C(N)=O)ccc1/C=C/S(=O)(=O)N1CCC2(CC1)N=C(c1cccc(OC(F)(F)F)c1)NC2=O [Compound 729, 1-Cyanomethyl-1-(3-methyl-4-{(E)-2-[4-oxo-2-(3-trifluoromethoxy-phenyl)-1,3,8-triaza-spiro[4.5]dec-1-ene-8-sulfonyl]-vinyl}-phenyl)-urea]  45%
8. Cc1cc(N(C)C(N)=O)cc(C)c1CCS(=O)(=O)N1CCC2(CC1)N=C(CCCCCCCCCC(=O)O)NC2=O [Compound 1362, 10-(8-{2-[2,6-dimethyl-4-(1-methyl-ureido)-phenyl]-ethanesulfonyl}-4-oxo-1,3,8-triaza-spiro[4.5]dec-1-en-2-yl)-decanoic acid]  48%
9. Cc1cc(C(=O)N(C)C)ccc1CCS(=O)(=O)N1CCC2(CC1)N=C(N(C)c1ccc(C(F)(F)F)cc1)NC2=O [Compound 1400, 3,N,N-trimethyl-4-(2-{2-[methyl-(4-trifluoromethyl-phenyl)-amino]-4-oxo-1,3,8-triaza-spiro[4.5]dec-1-ene-8-sulfonyl}-ethyl)-benzamide]  49%
10. Cc1cc(NS(=O)(=O)NCCCO)ccc1CCS(=O)(=O)N1CCC2(CC1)N=C(c1cccc(OC(F)(F)F)c1)NC2=O [Compound 875, N-(3-hydroxy-propyl)-N′-(3-methyl-4-{2-[4-oxo-2-(3-trifluoromethoxy-phenyl)-1,3,8-triaza-spiro[4.5]dec-1-ene-8-sulfonyl]-ethyl}-phenyl)-sulfamide]  65%
11. Cc1cc2ccc1CCS(=O)(=O)N1CCC3(CC1)N=C(NC3=O)c1cc(cc(C(F)(F)F)c1)OCC/C=C/COCCN(CCO)C2=O [Compound 1428]  67%
12. CC(=O)Nc1ccc(CCS(=O)(=O)N2CCC3(CC2)N=C(C2CCC(C(F)F)CC2)NC3=O)c(C)c1 (stereo not shown) [Compound 1075, N-(4-{2-[2-(4-difluoromethyl-cyclohexyl)-4-oxo-1,3,8-triaza-spiro[4.5]dec-1-ene-8-sulfonyl]-ethyl}-3-methyl-phenyl)-acetamide]  69%
13. Cc1cc(C(=O)N2CCC3(CC2)COC3)cc(C)c1/C=C/S(=O)(=O)N1CCC2(CC1)N=C(c1ccc(F)c(C(F)(F)F)c1)NC2=O [Compound 644, 8-{(E)-2-[2,6-dimethyl-4-(2-oxa-7-aza-spiro[3.5]nonane-7-carbonyl)-phenyl]-ethenesulfonyl}-2-(4-fluoro-3-trifluoromethyl-phenyl)-1,3,8-triaza-spiro[4.5]dec-1-en-4-one]  75%
14. Cc1cc(C2=NC3(CCN(S(=O)(=O)CCc4ccc(C(=O)N(C)C)cc4C)CC3)C(=O)N2)ccc1Cl [Compound 95, 4-{2-[2-(4-chloro-3-methyl-phenyl)-4-oxo-1,3,8-triaza-spiro[4.5]dec-1-ene-8-sulfonyl]-ethyl}-3,N,N-trimethyl-benzamide]  76%
15. Cc1cc(N(CCF)C(N)=O)cc(C)c1/C=C/S(=O)(=O)N1CCC2(CC1)N=C(C1CCC(CCC(F)(F)F)CC1)NC2=O (stereo not shown) [Compound 694, 1-[3,5-Dimethyl-4-((E)-2-{4-oxo-2-[4-(3,3,3-trifluoro-propyl)-cyclohexyl]-1,3,8-triaza-spiro[4.5]dec-1-ene-8-sulfonyl}-vinyl)-phenyl]-1-(2-fluoro-ethyl)-urea]  77%
16. Cc1cc(CCS(=O)(=O)N2CCC3(CC2)N=C(C2CCC(C)CC2)NC3=O)cc(C)c1N1C(=O)CNC1=O (stereo not shown) [Compound 749, 3-(2,6-dimethyl-4-{2-[2-(4-methyl-cyclohexyl)-4-oxo-1,3,8-triaza-spiro[4.5]dec-1-ene-8-sulfonyl]-ethyl}-phenyl)-imidazolidine-2,4-dione]  77%
17. Cc1cc(C(=O)N(C)C)ccc1CCS(=O)(=O)N1CCC2(CC1)N=C(CC1CCCCC1)NC2=O [Compound 103, 4-[2-(2-cyclohexylmethyl-4-oxo-1,3,8-triaza-spiro[4.5]dec-1-ene-8-sulfonyl)-ethyl]-3,N,N-trimethyl-benzamide]  80%
18. Cc1cc(OC[C@H](O)CO)cc(C)c1/C=C/S(=O)(=O)N1CCC2(CC1)N=C(c1cccc(C(F)(F)F)c1F)NC2=O [Compound 243, 8-{(E)-2-[4-((R)-2,3-dihydroxy-propoxy)-2,6-dimethyl-phenyl]-ethenesulfonyl}-2-(2-fluoro-3-trifluoromethyl-phenyl)-1,3,8-triaza-spiro[4.5]dec-1-en-4-one]  80%
19. CC(=O)N(C)c1ccc(CCS(=O)(=O)N2CCC3(CC2)N=C(c2cccc(OC(F)(F)F)c2)NC3=O)c(C)c1 [Compound 299, N-methyl-N-(3-methyl-4-{2-[4-oxo-2-(3-trifluoromethoxy-phenyl)-1,3,8-triaza-spiro[4.5]dec-1-ene-8-sulfonyl]-ethyl}-phenyl)-acetamide]  83%
20. O=C1NC(C2CCCCC2)=NC12CCN(S(=O)(=O)/C=C/c1ccc3c(ccn3C[C@H](O)CO)c1)CC2 [Compound 702, 2-Cyclohexyl-8-{(E)-2-[1-((S)-2,3-dihydroxy-propyl)-1H-indol-5-yl]-ethenesulfonyl}-1,3,8-triaza-spiro[4.5]dec-1-en-4-one]  84%
21. Cc1cc(C(=O)N(C)C)c(F)cc1CCS(=O)(=O)N1CCC2(CC1)N=C(c1cccc(C(F)(F)F)c1)NC2=O [Compound 418, 2-Fluoro-5,N,N-trimethyl-4-{2-[4-oxo-2-(3-trifluoromethyl-phenyl)-1,3,8-triaza-spiro[4.5]dec-1-ene-8-sulfonyl]-ethyl}-benzamide]  84%
22. Cc1cc(N2C(=O)CNC2=O)cc(C)c1/C=C/S(=O)(=O)N1CCC2(CC1)N=C(c1cccc(OC(F)(F)F)c1)NC2=O [Compound 635, 3-(3,5-Dimethyl-4-{(E)-2-[4-oxo-2-(3-trifluoromethoxy-phenyl)-1,3,8-triaza-spiro[4.5]dec-1-ene-8-sulfonyl]-vinyl}-phenyl)-imidazolidine-2,4-dione]  93%
23. Cc1cc(N(C)C(N)=O)cc(C)c1/C=C/S(=O)(=O)N1CCC2(CC1)N=C(c1ccc(F)c(C(F)(F)F)c1)NC2=O [Compound 1017, 1-(4-{(E)-2-[2-(4-Fluoro-3-trifluoromethyl-phenyl)-4-oxo-1,3,8-triaza-spiro[4.5]dec-1-ene-8-sulfonyl]-vinyl}-3,5-dimethyl-phenyl)-1-methyl-urea]  101%
24. Cc1cc(S(=O)(=O)Nc2cccnc2)ccc1CCS(=O)(=O)N1CCC2(CC1)N=C(c1cccc(C(F)(F)F)c1)NC2=O [Compound 294, 3-methyl-4-{2-[4-oxo-2-(3-trifluoromethyl-phenyl)-1,3,8-triaza-spiro[4.5]dec-1-ene-8-sulfonyl]-ethyl}-N-pyridin-3-yl-benzenesulfonamide]  106%
25. Cc1cc(N(C)C(N)=O)cc(C)c1/C=C/S(=O)(=O)N1CCC2(CC1)N=C(c1cccc(OC(F)(F)C(F)F)c1)NC2=O [Compound 1018, 1-[3,5-dimethyl-4-((E)-2-{4-oxo-2-[3-(1,1,2,2-tetrafluoro-ethoxy)-phenyl]-1,3,8-triaza-spiro[4.5]dec-1-ene-8-sulfonyl}-vinyl)-phenyl]-1-methyl-urea]  109%
